Measured values as given in patent publication US20150105252A1, “SUBSTITUTED PYRAZOLES AS HERBICIDES” (E I DU PONT DE NEMOURS AND COMPANY, priority 2013, published 2015).

Legend:
[1] = system: foxtail, giant; assay: Test A preemergence; type: in vivo, Setaria faberii; details: 0 to 100 scale
Procedure, shortened: (§1)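 Scoring was visual, on a scale where 100 means complete control and 0 means no effect, comparing treated with untreated plants around 10 days post-application. Compounds in surfactant-containing non-phytotoxic solvent were sprayed onto soil preemergence or onto one- to two-leaf seedlings (2–10 cm) postemergence.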

[2] = system: pigweed; assay: Test A postemergence; type: in vivo, Amaranthus retroflexus
Procedure, shortened: as §1

[3] = system: foxtail, giant; assay: Test A postemergence; type: in vivo, Setaria faberii
Procedure, shortened: as §1

[4] = system: ducksalad; assay: Test C flooded paddy test; type: in vivo, Heteranthera limosa; details: Flood
Excerpt: (§2) At time of treatment, test pots were flooded to 3 cm above the soil surface, treated by application of test compounds directly to the paddy water, and then maintained at that water depth for the duration of the test. Treated plants and controls were maintained in a greenhouse for 13 to 15 days, after which time all species were compared to controls and visually evaluated. […] A dash (-) response means no test result.

[5] = system: barnyardgrass; assay: Test A preemergence; type: in vivo, Echinochloa crus-galli; details: 0 to 100 scale
Procedure, shortened: as §1

[6] = system: crabgrass, large; assay: Test A postemergence; type: in vivo, Digitaria sanguinalis
Procedure, shortened: as §1

[7] = system: wheat; assay: Test A preemergence; type: in vivo, Triticum aestivum; details: preemergence, 125 g ai/ha; visual injury, 0 to 100 scale, approx. 10 days
Procedure, shortened: as §1

[8] = system: corn; assay: Test A preemergence; type: in vivo, Zea mays; details: 0 to 100 scale
Procedure, shortened: as §1

[9] = system: morningglory; assay: Test A postemergence; type: in vivo, Ipomoea spp.
Procedure, shortened: as §1

[10] = system: wheat; assay: Test A postemergence; type: in vivo, Triticum aestivum
Procedure, shortened: as §1

[11] = system: corn; assay: Test A postemergence; type: in vivo, Zea mays
Procedure, shortened: as §1

[12] = system: barnyardgrass; assay: Test A postemergence; type: in vivo, Echinochloa crus-galli; details: Postemergence
Procedure, shortened: as §1

[13] = system: crabgrass, large; assay: Test A preemergence; type: in vivo, Digitaria sanguinalis; details: 0 to 100 scale
Procedure, shortened: as §1

[14] = system: barnyardgrass; assay: Test C flooded paddy test; type: in vivo, Echinochloa crus-galli; details: Flood
Excerpt: as §2

[15] = system: rice; assay: Test C flooded paddy test; type: in vivo, Oryza sativa; details: Flood
Excerpt: as §2

[16] = system: velvetleaf; assay: Test A preemergence; type: in vivo, Abutilon theophrasti; details: 0 to 100 scale
Procedure, shortened: as §1

[17] = system: pigweed; assay: Test A preemergence; type: in vivo, Amaranthus retroflexus; details: 0 to 100 scale
Procedure, shortened: as §1

[18] = system: velvetleaf; assay: Test A postemergence; type: in vivo, Abutilon theophrasti
Procedure, shortened: as §1

[19] = system: sedge, umbrella; assay: Test C flooded paddy test; type: in vivo, Cyperus difformis; details: Flood
Procedure, shortened: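 Ratings were visual and made relative to untreated controls after 13 to 15 greenhouse days.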

[20] = system: morningglory; assay: Test A preemergence; type: in vivo, Ipomoea spp.; details: 0 to 100 scale
Procedure, shortened: as §1

[21] = Preemergence, 500 g ai/ha, 0 no effect, 100 complete control
[22] = preemergence, 125 g ai/ha, visual injury, approx. 10 days
[23] = Postemergence, 500 g ai/ha, visual rating after approx. 10 days, 0 to 100 scale (0 no effect, 100 complete control)
[24] = postemergence, 125 g ai/ha, about 10 days, visual rating on 0 to 100 scale (0 no effect, 100 complete control)
[25] = 31 g ai/ha, scale 0 to 100 (0 no effect, 100 complete control)
[26] = 62 g ai/ha, scale 0 to 100 (0 no effect, 100 complete control)
[27] = 125 g ai/ha, 0 to 100 scale, 0 no effect, 100 complete control
[28] = 500 g ai/ha, visual rating after approx. 10 days, 0 to 100 scale (0 no effect, 100 complete control)

Compound: CNC(=O)c1cc(C)n(Cc2cccc(OC(F)(F)F)c2)n1 [Compound 3]
- Foxtail, Giant plant response rating [1, 21]: 20
- Foxtail, Giant plant response rating [1, 22]: 0
- Pigweed plant response rating [2, 23]: 70
- Pigweed plant response rating [2, 24]: 20
- Foxtail, Giant plant response rating [3, 23]: 0
- Foxtail, Giant plant response rating [3, 24]: 0
- Plant response rating, Ducksalad [4, 25]: 40
- Plant response rating, Ducksalad [4, 26]: 50
- Plant response rating, Ducksalad ([4]; 125 g ai/ha, scale 0 to 100): 50
- Plant response rating, Ducksalad ([4]; 250 g ai/ha, scale 0 to 100): 60
- Barnyardgrass plant response rating [5, 21]: 0
- Barnyardgrass plant response rating [5, 22]: 0
- Crabgrass, Large plant response rating [6, 23]: 10
- Crabgrass, Large plant response rating [6, 24]: 0
- Wheat plant response rating [7]: 0
- Corn plant response rating [8, 21]: 0
- Corn plant response rating [8, 22]: 0
- Morningglory plant response rating [9, 23]: 20
- Morningglory plant response rating [9, 24]: 10
- Wheat plant response rating [10, 23]: 0
- Wheat plant response rating [10, 24]: 0
- Corn plant response rating [11, 23]: 10
- Corn plant response rating [11, 24]: 0
- Barnyardgrass plant response rating [12, 27]: 0
- Barnyardgrass plant response rating [12, 28]: 0
- Crabgrass, Large plant response rating [13, 21]: 30
- Crabgrass, Large plant response rating [13, 22]: 0
- Plant response rating, Barnyardgrass [14, 25]: 0
- Plant response rating, Barnyardgrass [14, 26]: 0
- Plant response rating, Barnyardgrass ([14]; 125 g ai/ha, scale 0 to 100): 0
- Plant response rating, Barnyardgrass ([14]; 250 g ai/ha, scale 0 to 100): 0
- Plant response rating, Rice [15, 25]: 0
- Plant response rating, Rice [15, 26]: 0
- Plant response rating, Rice ([15]; 125 g ai/ha, scale 0 to 100): 0
- Plant response rating, Rice ([15]; 250 g ai/ha, scale 0 to 100): 0
- Velvetleaf plant response rating [16, 21]: 0
- Velvetleaf plant response rating [16, 22]: 0
- Pigweed plant response rating [17, 21]: 100
- Pigweed plant response rating [17, 22]: 0
- Velvetleaf plant response rating [18, 23]: 20
- Velvetleaf plant response rating [18, 24]: 0
- Plant response rating, Sedge, Umbrella [19, 25]: 0
- Plant response rating, Sedge, Umbrella [19, 26]: 0
- Plant response rating, Sedge, Umbrella ([19]; 125 g ai/ha, scale 0 to 100): 0
- Plant response rating, Sedge, Umbrella ([19]; 250 g ai/ha, scale 0 to 100): 0
- Morningglory plant response rating [20, 21]: 0
- Morningglory plant response rating [20, 22]: 0

Compound: CCNC(=O)c1cc(C)n(Cc2cccc(OC(F)(F)F)c2)n1 [Compound 4]
- Foxtail, Giant plant response rating [1, 21]: 60
- Foxtail, Giant plant response rating [1, 22]: 0
- Pigweed plant response rating [2, 23]: 80
- Pigweed plant response rating [2, 24]: 70
- Foxtail, Giant plant response rating [3, 23]: 30
- Foxtail, Giant plant response rating [3, 24]: 10
- Plant response rating, Ducksalad [4, 25]: 0
- Plant response rating, Ducksalad [4, 26]: 40
- Plant response rating, Ducksalad ([4]; 125 g ai/ha, scale 0 to 100): 50
- Plant response rating, Ducksalad ([4]; 250 g ai/ha, scale 0 to 100): 60
- Barnyardgrass plant response rating [5, 21]: 50
- Barnyardgrass plant response rating [5, 22]: 0
- Crabgrass, Large plant response rating [6, 23]: 50
- Crabgrass, Large plant response rating [6, 24]: 20
- Wheat plant response rating [7]: 0
- Corn plant response rating [8, 21]: 0
- Corn plant response rating [8, 22]: 0
- Morningglory plant response rating [9, 23]: 90
- Morningglory plant response rating [9, 24]: 30
- Wheat plant response rating [10, 23]: 0
- Wheat plant response rating [10, 24]: 0
- Corn plant response rating [11, 23]: 40
- Corn plant response rating [11, 24]: 10
- Barnyardgrass plant response rating [12, 27]: 10
- Barnyardgrass plant response rating [12, 28]: 40
- Crabgrass, Large plant response rating [13, 21]: 90
- Crabgrass, Large plant response rating [13, 22]: 40
- Plant response rating, Barnyardgrass [14, 25]: 0
- Plant response rating, Barnyardgrass [14, 26]: 0
- Plant response rating, Barnyardgrass ([14]; 125 g ai/ha, scale 0 to 100): 0
- Plant response rating, Barnyardgrass ([14]; 250 g ai/ha, scale 0 to 100): 0
- Plant response rating, Rice [15, 25]: 0
- Plant response rating, Rice [15, 26]: 0
- Plant response rating, Rice ([15]; 125 g ai/ha, scale 0 to 100): 0
- Plant response rating, Rice ([15]; 250 g ai/ha, scale 0 to 100): 0
- Velvetleaf plant response rating [16, 21]: 10
- Velvetleaf plant response rating [16, 22]: 0
- Pigweed plant response rating [17, 21]: 100
- Pigweed plant response rating [17, 22]: 50
- Velvetleaf plant response rating [18, 23]: 30
- Velvetleaf plant response rating [18, 24]: 10
- Plant response rating, Sedge, Umbrella [19, 25]: 0
- Plant response rating, Sedge, Umbrella [19, 26]: 0
- Plant response rating, Sedge, Umbrella ([19]; 125 g ai/ha, scale 0 to 100): 0
- Plant response rating, Sedge, Umbrella ([19]; 250 g ai/ha, scale 0 to 100): 60
- Morningglory plant response rating [20, 21]: 20
- Morningglory plant response rating [20, 22]: 0
